# Measured values as given in patent US11292803B2, “Bioreducible N-oxide-based probes for imaging of hypoxia” (THE BOARD OF TRUSTEES OF THE UNIVERSITY OF ILLINOIS, priority 2018, dated 2022).
# Experiments:
# [1] = tested on: CYP450-rich rat liver microsomes
# Description: FIG. 4. […] (a) Representative PA image (770 nm) of reaction mixtures incubated under normoxic or hypoxic conditions for 2 h, then quenched with an equal volume of acetonitrile. Dashed lines indicate positioning of FEP tubes. (b) Change in PA signal (770 nm) produced after 2 h incubation of HyP-1 (10 μM) with rat liver microsomes (RLM) (200 μg/mL) and NADPH (50 μM) in normoxic and hypoxic conditions (n=3). (c) Ratiometric fluorescence turn-on after 2 h incubation of HyP-1 (2 μM) with RLM ([…]) and NADPH (50 μM) in normoxic or hypoxic conditions (n=3). (d) Normalized fluorescent turn-on after 1 h hypoxic incubation of HyP-1 (2 μM) with RLM (100 μg/mL) and NADPH (50 μM) under various conditions. Statistical significance represents a comparison to the hypoxic control (n=6). Results with error bars are represented as mean±SD. **p<0.01, ***p<0.001, ****p<0.0001.
# The responsiveness of HyP-1 to hypoxia was first evaluated in vitro via fluorescence by incubating HyP-1 with CYP450-rich rat liver microsomes under atmospheric (normoxic) and oxygen-deprived (hypoxic) conditions. […] The PA response of HyP-1 under identical conditions was evaluated by quenching the reaction mixtures with an equal volume of acetonitrile and transferring the solutions into fluorinated ethylene propylene (FEP) tubes, which were inserted into the centre of a 2 cm thick agarose-based tissue-mimicking phantom.
# For hypoxic assays only, cuvettes were sealed with septa, then evacuated and filled with N2 (×3) prior to use. Potassium phosphate buffer (0.1 M, pH 7.4) and NADPH (0.5 mM) were degassed with N2 for 30 minutes. For all assays, phosphate buffer (889 μL) rat liver microsomes (200 μg/mL) and HyP-1 (1 μL, 2 mM in DMSO) were added to the cuvette and pre-incubated at 37° C. for 5 minutes. NADPH (100 μL) was added and incubation continued with fluorescence spectra acquisition occurring at the indicated time points. Spectra were acquired according to the following parameters: λex=672, emission range=685-800 nm and λex=750, emission range=760-900 nm. For BIPY and DPI experiments, the compounds were added from stock solutions (1 M BIPY in DMSO and 50 mM DPI in deionized water) following the 5 minute preincubation, and the buffer volume was adjusted such that the total volume in the cuvette was equal to 1 mL. Deactivated microsomes were prepared by heating in a 45° C. water bath for 30 minutes.
# 4T1 cells = assay: Ratiometric fluorescence of cells, IVIS Spectrum; assay type: cell-based, murine; conditions: hypoxic 4T1 cells
# Description: Ratiometric fluorescence imaging was also performed on 4T1 cells cultured in 6-well plates using an IVIS Spectrum imaging system. Cells were stained with a 5 μM solution of HyP-1 and incubated in either normoxic or hypoxic conditions for 4 hours (FIG. 5c). […] To further verify the in vitro results and determine the cellular factors responsible for HyP-1 reduction, cells were also stained with HyP-1 solutions containing either BIPY or DPI at multiple concentrations and incubated under hypoxic conditions.
# Authenticated 4T1 cells were purchased from ATCC. Cells were grown in RPMI 1640 medium supplemented with 10% fetal bovine serum. Cells were cultured at 37° C. in 5% CO2 and 20% 02 for normoxic conditions. Hypoxic cell culture was performed by incubating cells in a sealed container with a Mitsubishi AnaeroPack™ anaerobic gas generator. Hypoxic conditions were verified with the use of a Mitsubishi RT Anaero-Indicator.
# For cellular imaging using the IVIS Spectrum imaging system, cells were plated in a 6-well plate at an initial density of 1.7×10^4 cells/mL and allowed to grow until 60-80% confluent (approximately 3 days). Media was removed and cells were washed with PBS. A […] solution of HyP-1 in serum-free medium was added, and cells were incubated under normoxic or hypoxic conditions for 4 hours. For BIPY and DPI experiments, the staining solution was supplemented with the compound at the appropriate concentration, and ratiometric turn-on was reported relative to a vehicle control. Images were obtained using excitation and emission filter sets of 675/720 nm and 745/800 nm. Regions of interest (ROIs) were drawn around cell-containing wells, and ratiometric signal was calculated by determining the ratio of radiant efficiency corresponding to 800 nm and 720 nm emissions.
# [2] = Photophysical characterization (absorbance, emission, extinction coefficient, quantum yield); assay type: physicochemical
# ischemic hindlimb tissue = assay: In vivo fluorescence imaging of hindlimb ischemia model; parameters: species or system BALB/c mice; conditions: 5 mM co-administered, ischemic hindlimb
# Description: To visualize the response of HyP-1 in a model of rapidly developing hypoxia, a murine hindlimb ischemia model of peripheral artery disease was employed. Ischemia was induced in the right hindlimb of BALB/c mice via ligation of the femoral artery. […] After a 1-hour recovery period, HyP-1 (50 μL, 50 μM) was administered via intramuscular injection into both hindlimbs of the mouse. To visualize the time-dependent response of HyP-1 in the ischemic and non-ischemic tissue, ratiometric fluorescence imaging was performed over the course of 1 hour immediately following injection. […]
# All in vivo imaging experiments were performed with the approval of the Institutional Animal Care and Use Committee of the University of Illinois at Urbana-Champaign, following the principles outlined by the American Physiological Society on research animal use. […] Animals that underwent unsuccessful surgery as determined by laser Doppler perfusion imaging were excluded from analysis.
# Images were obtained using epi-fluorescence with excitation filters of 675 and 745 and corresponding emission filters of 720 and 800, respectively. […] ROIs of equal area were drawn around signals, and the total radiant efficiency in each ROI was determined. Ratiometric signal was calculated by determining the ratio of radiant efficiency corresponding to 800 nm and 720 nm emissions.
SMILES,Φ ([2]; Table 2),ε ([2]; Table 2),λabs ([2]; Table 2) [nm],further results
"[Cl-].c1ccc([I+]c2ccccc2)cc1 [DPI, diphenyliodonium chloride, reference compound]",–,–,–,"effect on HyP-1 turn-on response / reduction by rat liver microsomes [1]: inhibition of HyP-1 reduction was achieved; inhibition of HyP-1 ratiometric fluorescence in cells (4T1 cells; multiple concentrations (100, 500 μM)): significant dose-dependent inhibition"
"CCN(CC)c1ccc(-c2cc(-c3ccccc3)c3n2[B-](F)(F)[N+]2=C(c4ccccc4)C=C(c4ccccc4)C2=N3)cc1 [red-HyP-650, 4-(5,5-difluoro-1,7,9-triphenyl-5H-54,64-dipyrrolo[1,2-c:2′,1′-f][1,3,5,2]triazaborinin-3-yl)-N,N-diethylaniline]",–,–,–,Φ (fluorescence quantum yield) ([2]; in CHCl3 (Table 3)): 0.069; ε ([2]; in CHCl3 (Table 3)): 8.1 × 10^4 M^−1 · cm^1; λabs ([2]; in CHCl3 (Table 3)): 740 nm
"CCN(CC)c1ccc(C2=[N+]3C(=Nc4c(-c5ccccc5)cc(-c5ccc([N+]([O-])(CC)CC)cc5)n4[B-]3(F)F)C(c3ccccc3)=C2)cc1 [rHyP-1, 4-(7-(4-(diethylamino)phenyl)-5,5-difluoro-1,9-diphenyl-5H-5λ^4,6λ^4-dipyrrolo[1,2-c:2′,1′-f][1,3,5,2]triazaborinin-3-yl)-N,N-diethylaniline oxide]",0.013,5.8 × 10^4 M^−1 · cm^1,749,–
"CC[N+]([O-])(CC)c1ccc(-c2cc(-c3ccccc3)c3n2[B-](F)(F)[N+]2=C(c4ccccc4)C=C(c4ccccc4)C2=N3)cc1 [HyP-650, 4-(5,5-difluoro-1,7,9-triphenyl-5H-54,64-dipyrrolo[1,2-c:2′,1′-f][1,3,5,2]triazaborinin-3-yl)-N,N-diethylaniline oxide]",–,–,–,Φ (fluorescence quantum yield) ([2]; in CHCl3 (Table 3)): 0.027; ε ([2]; in CHCl3 (Table 3)): 4.0 × 10^4 M^−1 · cm^1; λabs ([2]; in CHCl3 (Table 3)): 650 nm
CCCN(CCC)c1ccc(C2=[N+]3C(=Nc4c(-c5ccccc5)cc(-c5ccc([N+]([O-])(CCC)CCC)cc5)n4[B-]3(F)F)C(c3ccccc3)=C2)cc1 [rHyP-3],0.013,8.0 × 10^4 M^−1 · cm^1,747,–
CN(C)c1ccc(C2=[N+]3C(=Nc4c(-c5ccccc5)cc(-c5ccc(N(C)C)cc5)n4[B-]3(F)F)C(c3ccccc3)=C2)cc1 [red-rHyP-2],0.023,8.2 × 10^4 M^−1 · cm^1,798,–
F[B-]1(F)n2c(-c3ccc(N4CCOCC4)cc3)cc(-c3ccccc3)c2N=C2C(c3ccccc3)=CC(c3ccc(N4CCOCC4)cc3)=[N+]21 [red-rHyP-5],0.085,7.6 × 10^4 M^−1 · cm^1,758,–
[O-][N+]1(c2ccc(-c3cc(-c4ccccc4)c4n3[B-](F)(F)[N+]3=C(c5ccc(N6CCOCC6)cc5)C=C(c5ccccc5)C3=N4)cc2)CCOCC1 [rHyP-5],0.049,9.2 × 10^4 M^−1 · cm^1,718,–
F[B-]1(F)n2c(-c3ccc(N4CCCCC4)cc3)cc(-c3ccccc3)c2N=C2C(c3ccccc3)=CC(c3ccc(N4CCCCC4)cc3)=[N+]21 [red-rHyP-4],0.017,7.6 × 10^4 M^−1 · cm^1,787,–
CN(C)c1ccc(C2=[N+]3C(=Nc4c(-c5ccccc5)cc(-c5ccc([N+](C)(C)[O-])cc5)n4[B-]3(F)F)C(c3ccccc3)=C2)cc1 [rHyP-2],0.021,4.6 × 10^4 M^−1 · cm^1,738,–
CCCN(CCC)c1ccc(C2=[N+]3C(=Nc4c(-c5ccccc5)cc(-c5ccc(N(CCC)CCC)cc5)n4[B-]3(F)F)C(c3ccccc3)=C2)cc1 [red-rHyP-3],0.010,9.3 × 10^4 M^−1 · cm^1,826,–
[O-][N+]1(c2ccc(-c3cc(-c4ccccc4)c4n3[B-](F)(F)[N+]3=C(c5ccc(N6CCCCC6)cc5)C=C(c5ccccc5)C3=N4)cc2)CCCCC1 [rHyP-4],0.011,9.1 × 10^4 M^−1 · cm^1,748,–
"c1ccc(-c2ccccn2)nc1 [BIPY, 2,2′-bipyridine, reference compound]",–,–,–,effect on HyP-1 turn-on response / reduction by rat liver microsomes [1]: no significant inhibition; effect on cellular response to HyP-1 (4T1 cells; 1 mM): no effect; effect on ratiometric fluorescence of HyP-1 in cells (4T1 cells; 5 mM): only slight reduction; ratiometric fluorescence enhancement with co-administration versus HyP-1 alone (ischemic hindlimb tissue): statistically indistinguishable
"CCN(CC)c1ccc(C2=[N+]3C(=Nc4c(-c5ccccc5)cc(-c5ccc(N(CC)CC)cc5)n4[B-]3(F)F)C(c3ccccc3)=C2)cc1 [red-rHyP-1, 4,4′-(5,5-difluoro-1,9-diphenyl-5H-4λ^4,5λ^4-dipyrrolo[1,2-c:2′,1′-f][1,3,5,2]triazaborinine-3,7-diyl)bis(N,N-diethylaniline)]",0.013,9.9 × 10^4 M^−1 · cm^1,818,–
